How the values were obtained:
ERK½ = assay: ERK detection (phospho-ERK western blot) in naïve T cells; assay type: cell-based, mice; details: naïve T cells pre-treated with CCL2 30 minutes, CCL21 for 30 or 60 seconds; FIG. 3
Protocol: Stimulation of T cells—Cell stimulation was performed as previously described [Flaishon et al., J Biol Chem. (2001) 276:46701-46706]. Briefly, 1×10^7 T cells were suspended in 1 ml DMEM cell medium containing 10% (v/v) Fetal Calf Serum (FCS). Next, 0.1 ng/ml CCL2 (CytoLab) was added to each tube and the tubes were immediately placed in 37° C. for 30 minutes. Immediately after stimulation, cells were washed and handled as described hereinbelow.
Preparation of cell extract—Stimulated cells were lysed in lysis buffer containing: 25 mM Tris, pH 7.4; 2 mM Vanadate; 75 mM glycophosphate, pH 7.2; 2 mM EDTA; 2 mM EGTA; 10 mM NaPPi; and 0.5% NP-40, in the presence of the following protease inhibitors: 10 mg/ml Leupeptin; 10 mg/ml aprotinin; 10 mg/ml pepstatin; 10 mg/ml chymostatin (Roche); 1 mM PMSF (Sigma); and 20 mM N-etheyl-melamide (Sigma).
ERK detection—Cell lysates were separated on a 10% (wt/vol) SDS-PAGE. Proteins were electro-transferred to nitrocellulose membranes and reacted with anti-phospho-specific extracellular signal-regulated kinase (ERK) 1 or 2 (a kind gift from Dr Rony Seger, Weizmann Institute, Rehovot, Israel) followed by peroxidase-labeled goat anti-mouse (Jackson Labs), or reacted with polyclonal anti-Tubulin (Santa Cruz) followed by peroxidase anti-rabbit (Jackson Labs).

naive lymphocytes = assay: Intravital microscopy of mouse subiliac LN: lymphocyte rolling and sticking in HEVs; assay type: in vivo, C57BL/6 mice
Protocol: Intravital microscopy of mouse subiliac LN—Mice were anesthetized by intraperitoneal injection of 1 mg/ml xylazine and 5 mg/ml ketamine. The right femoral artery was catheterized. The left subiliac LN was prepared for IVM as previously described [Carriere et al., Cancer Res. (2005) 65:11639-11648; M'Rini et al., J Exp Med. (2003) 198:1301-1312], and the mouse was then transferred to a customized intravital video microscopy setup (INM 100; Leica Microsystems SA, Rueil-Malmaison, France) equipped with water immersion objectives (HCX APO; Leica Microsystems SA, Rueil-Malmaison, France). Fluorescent events in the LN microcirculation were visualized and recorded by a silicon-intensified target camera (Hamamatsu Photonics, Massy, France) and stored on DVCAM video tapes (DSR-11 Sony, IEC-ASV, Toulouse, France).
For visualization of naive lymphocyte interactions with LN vascular endothelium, naïve lymphocytes obtained from single T and B cell suspensions of a control C57BL/6 pool of subiliac, axillary, brachial and mesenteric LNs were incubated in the presence or absence of CCL2 (R&D Systems, Lille, France; 1 ng/ml, 30 minutes, 37° C.), fluorescently labeled by calcein AM (Molecular Probes-Invitrogen, Cergy Pontoise, France; 0.25 microM, 5 min, 37° C.) and then injected into the right femoral artery. Cell behavior in LN venules was assessed as previously described [Carriere et al., supra; M'Rini et al., supra]. The rolling fraction was determined as the percentage of cells that rolled along the vascular lining in the total flux of cells per venule. The sticking fraction was determined as the percentage in rolling cells of cells firmly adherent for at least 10 seconds or 1 minute.

TNBS colitis mouse model = assay type: in vivo, mice; details: for Diarrhea (# of mice): 8 mice; for Colitis score: Wallace score 0 to 16
Protocol: TNBS colitis model and treatment with CCL2—TNBS colitis was induced as previously described [Ohkawara et al. (2002) Gastroenterology, 123:256]. Briefly, mice were anesthetized by i.p. injection (35 μl per mouse) of a mixture containing 85% ketamine and 15% xylazine (20 mg/ml). Next, 100 μl of TNBS [55% volume of 50% ethanol mixed with 45% volume of TNBS solution ([…]; Sigma-Aldrich)] was infused into the colonic lumen (about 3.5 cm of the anal verge) via 1 ml syringe attached to a feeding needle. Treated mice were weighted daily and visually inspected for clinical symptoms, such as rectal bleeding and diarrhea.
TNBS mice were divided into 6 groups. CCL2 groups (10 mice in each group) were injected i.p. daily with different CCL2 concentrations (30 ng, 60 ng or 180 ng) in 200 μl of PBS from day 0 (immediately after TNBS induction) to day 6. Control groups (10 mice in each group) were injected i.p. daily with 200 μl PBS alone. Additionally, 5 mice were injected i.p. daily with dexamethasone; and 1 mouse which was not treated and served as negative control for future histology and weight.
Macroscopic and histological assessment of colitis—An observer blind to the experimental procedure scored colitis for clinical manifestation of disease. The colon was macroscopically examined (×5 magnification) to evaluate the macroscopic lesions according to the Wallace criteria. The Wallace score ranks macroscopic colon lesions on a scale from 0 to 16 based on criteria reflecting inflammation, such as hyperemia, thickening of the bowel and the extent of ulceration. The colon was cut lengthwise and fixed in 4% paraformaldehyde for future histology.

naïve T cells = assay: Cytoskeleton rearrangement (actin polymerization), naïve T cells; assay type: cell-based, mice; details: naïve T cells pre-treated with CCL2 0.1 ng/ml, 15 seconds stimulation
Protocol: Cytoskeleton rearrangement—T cells were pre-incubated for 30 minutes in the presence or absence of CCL2 (0.1 ng/ml), and then stimulated with either CXCL12 (0.1 mg/ml PeproTech, Inc., Rocky Hill N.J.), SLC (CCL21, 0.4 mg/ml, PeproTech, Inc., Rocky Hill, N.J.), Rantes (0.1 mg/ml, R&D systems Minneapolis, Minn.), MIP-1β(0.1 mg/ml, R&D systems Minneapolis, Minn.) or Eotoxin (0.1 mg/ml R&D systems Minneapolis, Minn.) for 15 seconds. Cells were then immediately fixed with paraformaldehyde, permeabilized and their intracellular F-actin was stained with FITC-phalloidin (Sigma-Aldrich, St. Louis, Mo.), and then analyzed by flow cytometry to determine the state of their cytoskeleton, as previously described [Flaishon, L. F., et al., J. Biol. Chem. 276:46701 (2001)].

[1] = CCL2 30 ng i.p. daily day 0 to day 6
[2] = CCL2 60 ng i.p. daily day 0 to day 6
[3] = CCL2 180 ng i.p. daily day 0 to day 6

Q: For “CCL2: mammalian (e.g., human) CCL2 protein, GenBank NM_002982 / NP_002973; murine CCL2 used in the asthma model”, which “CCL21-induced phosphorylation of ERK½” value (ERK½) is on record?
A: Its value is “inhibited”.

Q: And the “number of firmly bound lymphocytes in the PLN venular tree” value (naive lymphocytes; 30 minutes after injection of the fluorescent cells, FIGS. 5f-g)?
A: Its value is “striking reduction”.

Q: And the “L-selectin mediated rolling in HEVs (rolling fraction)” value (naive lymphocytes; lymphocytes pre-treated with CCL2 1 ng/ml 30 minutes, FIG. 5b)?
A: The value was “did not significantly alter”.

Q: What about the “sticking fraction 10 seconds” value (naive lymphocytes; lymphocytes pre-treated with CCL2 1 ng/ml 30 minutes, vs control, FIG. 5c) of the same substance?
A: Its value is “comparable”.

Q: What about the “percentage of cells which remained adherent 1 minute after initial arrest” value (naive lymphocytes; lymphocytes pre-treated with CCL2 1 ng/ml 30 minutes, vs control, FIG. 5e) of the same substance?
A: The value was “severe reduction”.

Q: And the “percentage of cells which remained adherent 30 seconds after initial arrest” value (naive lymphocytes; lymphocytes pre-treated with CCL2 1 ng/ml 30 minutes, vs control, FIG. 5d)?
A: The value was “severe reduction”.

Q: And the “Colon length (cm)” value (TNBS colitis mouse model; [1])?
A: The value was 6.25 ± 0.65 cm.

Q: And the “Diarrhea (# of mice)” value (TNBS colitis mouse model; [1])?
A: Its value is 4 # of mice.

Q: And the Colitis score (TNBS colitis mouse model; [1])?
A: The Colitis score was 10.875 ± 4.29.

Q: What about the “Colon length (cm)” value (TNBS colitis mouse model; [2]) of the same substance?
A: The value was 7.88 ± 0.35 cm.

Q: And the “Diarrhea (# of mice)” value (TNBS colitis mouse model; [2])?
A: Its value is 0 # of mice.

Q: What about the Colitis score (TNBS colitis mouse model; [2]) of the same substance?
A: The Colitis score was 2.13 ± 1.89.

Q: What about the “Colon length (cm)” value (TNBS colitis mouse model; [3]) of the same substance?
A: The value was 7.88 ± 0.58 cm.

Q: What about the “Diarrhea (# of mice)” value (TNBS colitis mouse model; [3]) of the same substance?
A: Its value is 0 # of mice.

Q: And the Colitis score (TNBS colitis mouse model; [3])?
A: The Colitis score was 2.88 ± 1.89.

Q: And the “TNBS colitis disease severity (diarrhea, colon shortening)” value (TNBS colitis mouse model; mice, CCL2 i.p. daily day 0 to day 6, Table 2, FIG. 10)?
A: The value was “significantly inhibited the disease”.

Q: And the “inhibition of CXCL12-induced actin polymerization” value (naïve T cells; FIG. 2c)?
A: Its value is 40-50%.

Q: And the “inhibition of CCL21-induced actin polymerization” value (naïve T cells; FIG. 2d)?
A: Its value is 40-50%.

Reference: US7919077B2, “Pharmaceutical compositions comprising CCL2 and use of same for the treatment of inflammation” (Yeda Research and Development Co. Ltd., priority 2006, dated 2011)
